Settings: 303.15 K, Liquid, Vibrating tube method

CCCCC(=O)OCC(COC(=O)CCCC)(COC(=O)CCCC)COC(=O)CCCC [pentaerythritol tetrapentanoate]
Settings | mass density [kg/m3]
9247.2 kPa | 1016.8
9281.8 kPa | 1016.7
9311.6 kPa | 1016.7
9342 kPa | 1016.8
9371.6 kPa | 1016.9
9407.8 kPa | 1016.8
9438.5 kPa | 1016.8
9469.3 kPa | 1017
9495.9 kPa | 1017
9521 kPa | 1016.9
9552.9 kPa | 1017
9584.8 kPa | 1016.9
9608.9 kPa | 1017
9634.2 kPa | 1017
9666.8 kPa | 1017
9688 kPa | 1017
9719.7 kPa | 1017.1
9746.4 kPa | 1017.1
9779.5 kPa | 1017.2
9805.7 kPa | 1017.2
9831.9 kPa | 1017.1
9858.9 kPa | 1017.1
9892.2 kPa | 1017.1
9921.6 kPa | 1017.2
9948 kPa | 1017.2
9980.5 kPa | 1017.3
10009 kPa | 1017.3
10046 kPa | 1017.3
10069 kPa | 1017.3
10099 kPa | 1017.4
10134 kPa | 1017.2
10161 kPa | 1017.2
10195 kPa | 1017.3
10225 kPa | 1017.5
10254 kPa | 1017.4
10289 kPa | 1017.4
10319 kPa | 1017.5
10351 kPa | 1017.4
10382 kPa | 1017.1
10417 kPa | 1017.5
10448 kPa | 1017.6
10480 kPa | 1017.6
10517 kPa | 1017.7
10550 kPa | 1017.5
10583 kPa | 1017.6
10624 kPa | 1017.7
10658 kPa | 1017.5
10690 kPa | 1017.7
10713 kPa | 1017.7
10757 kPa | 1017.7
10800 kPa | 1017.6
10821 kPa | 1017.7
10840 kPa | 1017.8
10863 kPa | 1017.8
10883 kPa | 1017.9
10904 kPa | 1017.8
10928 kPa | 1017.9
10947 kPa | 1017.9
10968 kPa | 1017.8
10992 kPa | 1017.9
11013 kPa | 1017.8
11033 kPa | 1017.9
11058 kPa | 1017.9
11078 kPa | 1017.9
11101 kPa | 1018
11121 kPa | 1018
11147 kPa | 1017.9
11168 kPa | 1017.9
11191 kPa | 1018.1
11213 kPa | 1017.9
11234 kPa | 1017.9
11255 kPa | 1018.1
11281 kPa | 1018
11302 kPa | 1018
11328 kPa | 1018.2
11349 kPa | 1018.1
11372 kPa | 1018.1
11398 kPa | 1018.1
11420 kPa | 1018.2
11443 kPa | 1018
11469 kPa | 1018.2
11491 kPa | 1018.1
11513 kPa | 1018.1
11541 kPa | 1018.2
11564 kPa | 1018.2
11586 kPa | 1018.3
11612 kPa | 1018.2
11635 kPa | 1018.2
11658 kPa | 1018.3
11688 kPa | 1018.3
11710 kPa | 1018.2
11734 kPa | 1018.2
11758 kPa | 1018.4
11785 kPa | 1018.3
11809 kPa | 1018.3
11838 kPa | 1018.4
11862 kPa | 1018.4
11884 kPa | 1018.5
11909 kPa | 1018.4
11938 kPa | 1018.6
11963 kPa | 1018.4
11988 kPa | 1018.5
12014 kPa | 1018.5
12044 kPa | 1018.5
12069 kPa | 1018.5
12095 kPa | 1018.5
12120 kPa | 1018.5
12148 kPa | 1018.6
12173 kPa | 1018.6
12205 kPa | 1018.5
12229 kPa | 1018.7
12254 kPa | 1018.5
12285 kPa | 1018.7
12312 kPa | 1018.6
12338 kPa | 1018.6
12366 kPa | 1018.7
12391 kPa | 1018.8
12423 kPa | 1018.7
12449 kPa | 1018.7
12476 kPa | 1018.7
12508 kPa | 1018.8
12536 kPa | 1018.8
12562 kPa | 1018.8
12596 kPa | 1018.8
12621 kPa | 1018.8
12649 kPa | 1018.8
12682 kPa | 1018.8
12710 kPa | 1018.8
12740 kPa | 1018.9
12766 kPa | 1018.9
12798 kPa | 1019
12826 kPa | 1018.9
12856 kPa | 1019
12889 kPa | 1019.1
12918 kPa | 1019.1
12946 kPa | 1019
12980 kPa | 1019.1
13009 kPa | 1019
13044 kPa | 1019.1
13075 kPa | 1019.2
13102 kPa | 1019.2
13132 kPa | 1019.1
13169 kPa | 1019.2
13197 kPa | 1019.1
13227 kPa | 1019.2
13258 kPa | 1019.1
13295 kPa | 1019.2
13324 kPa | 1019.2
13359 kPa | 1019.3
13390 kPa | 1019.3
13421 kPa | 1019.3
13458 kPa | 1019.3
13489 kPa | 1019.4
13520 kPa | 1019.4
13558 kPa | 1019.4
13590 kPa | 1019.4
13622 kPa | 1019.4
13660 kPa | 1019.5
13693 kPa | 1019.5
13725 kPa | 1019.6

Reference: the NIST ThermoML archive (doi:10.1021/je060271a)
